As usually defined, the IC50 is the midpoint of a concentration-inhibition curve. Higher therefore signals lower potency.

The values below come from paper PMC4240912, “Multifaceted interplay between lipophilicity, protein interaction and luminescence parameters of non-intercalative ruthenium(II) polypyridyl complexes controlling cellular imaging and cytotoxic properties” (Journal of Biological Inorganic Chemistry, 2014).

Like-named read-outs stand apart in the source and are kept apart here.

The subject of data set [1] is 4T1 breast cancer cell line. The data set can be described thus: Alamar Blue cell viability, 4T1. The format is cell-based. To be noted: 4T1, 24 h incubation. On the procedure:
4T1 breast cancer cell line was cultured in RPMI-1640 (Gibco Invitrogen) with 10 % fetal bovine serum (FBS, the bovine serum albumin is a major component), 1 % penicillin and streptomycin and 0.2 % fungizone. Cells were routinely cultured at 37 °C in a humidified incubator in 5 % CO2 atmosphere. Cell viability was measured using Alamar Blue assay. Cells were seeded on 96-well plate with density of 10^4 cells per cm^2 and cultured for 24 h in medium with or without 2 % serum. Then cells were incubated with various concentrations of ruthenium compounds for 24 h in the dark. All used ruthenium complexes were freshly diluted in DMSO and then added to the appropriate medium to obtain the applied concentrations. The final DMSO concentration was kept constant at 0.05 % (v/v). Next cells were washed with PBS and incubated in AlamarBlue solution (21 times diluted in PBS) for 3 h. Alamar Blue test is based on the reduction of blue and non-fluorescent subtract (resazurin) to a pink and highly fluorescent product (resorufin) by the alive cells. Extract mechanism of the reduction is still unknown, but it is postulated that reduction occurs by mitochondrial or cytoplasmic enzymes, such as NADH dehydrogenase or diaphorase. It is still not known whether this process occurs intracellularly, at the plasma membrane surface or just in the medium as a chemical reaction. The cell viability was quantified at 605 nm using 560 nm excitation light (VICTOR 3V multilabel plate readers, PerkinElmer). Experiments were performed in triplicates and each experiment was performed at least three times to get the mean values ± standard deviation. The viability was calculated with regard to the untreated cells control. The IC50 values were determined using Hill equation (Origin 9.0): y=y0+y100-y0c^H/IC50^H+c^H
A general note: Alamar Blue is a resazurin reagent that responds to reducing activity.

Data set [2] concerns murine endothelial cells isolated from aorta-gonad-mesonephros (AGM) region of 10.5 dpc embryos (MAgEC 10.5). The data set can be described thus: Alamar Blue cell viability, MAgEC 10.5. Format: cell-based. To be noted: MAgEC 10.5, 24 h. On the procedure:
(§1) FVB mouse lung microvascular endothelial cells (MLuMEC FVB) and murine endothelial cells isolated from aorta-gonad-mesonephros (AGM) region of 10.5 dpc embryos (MAgEC 10.5) were cultured in OptiMEM with Glutamax-I (Gibco Invitrogen) supplemented with 2% fetal bovine serum (FBS), 0.4% gentamycin and 0.2% fungizone. […]
(§2) 10% FBS, 1% peniciline and streptomycin and 0.2% fungizone. Cells were routinely cultured at 37 °C in a humidified incubator in 5% CO2 atmosphere.
(§3) Cell viability was measured using Alamar Blue assay. Cells were seeded on 96 wells plate with density of 1 × 10^4 cells per cm2 and cultured for 1 day. Then cells were incubated with various concentrations of compounds in medium with or without 2% FBS for 24 and 48 h under normoxic and hypoxic conditions in the darkness. Next cells were washed with PBS and incubated in Alamar Blue solution for 3 h. The cell viability was quantified at 605 nm using 560 nm excitation light (VICTOR 3V multilabel plate reader PerkinElmer or Tecan Infinite200 Reader). Experiments were performed in triplicates and each experiment was performed at least three times to get the mean values ± standard derivation. The viability was calculated with regard to the untreated cells control. The IC50 values were determined using Hill equation (Origin 9.0). […]

Data set [3] concerns Human lung adenocarcinoma epithelial cell line (A549). The data set can be described thus: Alamar Blue cell viability, A549. Format: cell-based. To be noted: A549, 24 h. On the procedure:
as §2, §3

The test system of data set [4] is FVB mouse lung microvascular endothelial cells (MLuMEC FVB). The data set can be described thus: Alamar Blue cell viability, MLuMEC. The format is cell-based. The settings on record: 24 h. On the procedure:
as §1, §2, §3

For data set [5] the following is noted: aqueous solution, cited from earlier work.

`N.N.[Cl][Pt][Cl]` [Cisplatin, reference compound]: the IC50 in data set [1] (medium with serum (2 %)) worked out at 59.8 ± 8.32 µM; in data set [1] (medium without serum) it was 73 ± 14.9 µM; in data set [2] (with serum (2%)) it was 8.75 ± 0.2 µM; in data set [2] (without serum), 9.38 ± 0.67 µM; in data set [3] (with serum (2%)), 71.3 ± 22.9 µM; in data set [3] (without serum) it was 126 ± 30.5 µM. The IC50 in data set [4] (with serum (2%)) came to 14.5 ± 1.4 µM; in data set [4] (without serum), 24.6 ± 2.89 µM.
With `[Ru+2].c1ccc(-c2ccccn2)nc1.c1ccc(-c2ccccn2)nc1.c1ccc(-c2ccccn2)nc1` [[Ru(bpy)3]^2+, reference compound], the “Φ, quantum yield of luminescence (standard)” value is on record as 0.028 in data set [5] (air-equilibrium conditions, ref [14]) and 0.042 in data set [5] (deoxygenated conditions, ref [20]).
